{"source": "patent US6913925B1", "about": "“Human mesencephalon cell lines and methods of use therefor” (Signal Pharmaceuticals LLC, priority 1998, dated 2005)", "molecules": {"B1": {"name": "CNTF: ciliary neurotrophic factor (protein, UniProt P26441 1-200, looked up)", "Ciliary neurotrophic factor": "MAFTEHSPLTPHRRDLCSRSIWLARKIRSDLTALTESYVKHQGLNKNINLDSADGMPVASTDQWSELTEAERLQENLQAYRTFHVLLARLLEDQQVHFTPTEGDFHQAIHTLLLQVAAFAYQIEELMILLEYKIPRNEADGMPINVGDGGLFEKKLWGLKVLQELSQWTVRSIHDLRFISSHQTGIPARGSHYIANNKKM"}, "B2": {"name": "GDNF: glial cell-derived neurotrophic factor (protein, UniProt P39905 78-211, looked up)", "Glial cell line-derived …": "SPDKQMAVLPRRERNRQAAAANPENSRGKGRRGQRGKNRGCVLTAIHLNVTDLGLGYETKEELIFRYCSGSCDAAETTYDKILKNLSRNRRLVSDKVGQACCRPIAFDDDLSFLDDNLVYHILRKHSAKRCGCI"}}, "data": [{"system": "immortalized human mesencephalon cells", "assay": "Differentiation of conditionally-immortalized human mesencephalon cell lines into neurons", "type": "cell-based", "settings": "added together: forskolin 10 μM, GDNF 20 ng/mL, CNTF 20 ng/mL, IGF-I 100 ng/mL, BDNF 20 ng/mL", "text": "Conditionally-immortalized human mesencephalon neural precursor cell lines (which may, but need not, be clonal) may generally be induced to differentiate into neurons by inhibiting the expression of the growth-promoting gene (i.e., suppressing the production and/or activity of the growth-promoting protein). For example, if the gene encoding the growth-promoting protein is under the control of an externally-regulatable promoter, the conditions (e.g. temperature or composition of medium) may be modified to suppress transcription of the growth-promoting gene. For the tetracycline-controlled gene expression system discussed above, differentiation may be achieved by the addition of tetracycline to suppress transcription of the growth-promoting gene. In general, 1-5 μg/mL tetracycline for 48 hours is sufficient to begin neuronal morphological differentiation, and the number of differentiated neurons increases during subsequent days. Such differentiation may be performed, for example, by plating the cells on a suitable substrate (e.g., one or a combination of polyamino acid, fibronectin, laminin or tissue culture plastic) in a medium consisting of DMEM/F-12 with N2 supplement and tetracycline (1-5 μg/mL). […] Culture medium may then be refreshed (e.g., every 2-4 days).\nAn increase in TH expression was also observed for some cell lines, indicating the presence of dopaminergic neurons.\nOne clone (MESII(1)-C2) was differentiated in DMEM/F-12 with N2 supplement, tetracycline (1 μg/mL), forskolin (10 μM), GDNF (20 ng/mL) and BDNF (20 ng/mL). Following differentiation, a high number of MAP2ab and TH immunoreactive cells were observed. For such immunocytochemistry, cells were fixed with 4% paraformaldehyde, and were incubated with primary antibody in blocking buffer for 2 hours at room temperature, rinsed, and then incubated with a fluorescein (FITC)- or Texas red-conjugated species-specific secondary antibody (Jackson lmmunoresearch Laboratories, Inc., West Grove, Pa.) in blocking buffer for another hour at room temperature. Cultures were then rinsed three times with PBS and coverslipped with PVA/DABCO before scoring and photographing representative fields.", "values": [{"molecule": "BDNF: brain-derived neurotrophic factor", "enhancement of differentiation by addition to DMEM/F-12 with N2 supplement and tetracycline": "differentiation is enhanced"}, {"molecule": "IGF-I: insulin-like growth factor", "enhancement of differentiation by addition to DMEM/F-12 with N2 supplement and tetracycline": "differentiation is enhanced"}, {"molecule": "B1", "enhancement of differentiation by addition to DMEM/F-12 with N2 supplement and tetracycline": "differentiation is enhanced"}, {"molecule": "B2", "enhancement of differentiation by addition to DMEM/F-12 with N2 supplement and tetracycline": "differentiation is enhanced"}]}]}
